Data as given in ChEMBL document CHEMBL5126660, “Sesquiterpenoids from Seriphidium transiliense and Their Melanogenic Activity” (2022).
The source made the active and inactive calls. No cut-off for these calls is given here.

Columns and labels:
B16 [1] = assay: Induction of melanogenesis in mouse B16 cells assessed as upregulation of TRP-1 mRNA expression at 50 uM by RT-PCR analysis; assay type: functional, cell-based
B16 [2] = assay: Induction of melanogenesis in mouse B16 cells assessed as upregulation of MITF mRNA expression at 50 uM by RT-PCR analysis; assay type: functional, cell-based
B16 [3] = assay: Induction of melanogenesis in mouse B16 cells assessed as upregulation of MITF protein expression at 50 uM incubated for 48 hrs by Western blot analysis; assay type: functional, cell-based
HaCaT [4] = assay: Inhibition of JAK/STAT signaling pathway in human HaCaT cells assessed as downregulation of IFN-gamma induced CXCL10 mRNA expression at 1 to 50 uM by RT-PCR analysis; assay type: cell-based; conditions: dose 1-50 µM, DDE = dose-dependent effect
B16 [5] = assay: Induction of melanogenesis in mouse B16 cells assessed as increase in intracellular melanin content at 50 uM incubated for 49 hrs by NaOH lysis based microplate reader assay; assay type: functional
B16 [6] = assay: Induction of melanogenesis in mouse B16 cells assessed as increase in intracellular melanin content at 1 to 50 uM incubated for 49 hrs by NaOH lysis based microplate reader assay; assay type: functional, cell-based; conditions: dose 1-50 µM, DDE = dose-dependent effect
B16 [7] = assay: Induction of melanogenesis in mouse B16 cells assessed as upregulation of TYR protein expression at 50 uM incubated for 48 hrs by Western blot analysis; assay type: functional, cell-based
B16 [8] = assay: Induction of melanogenesis in mouse B16 cells assessed as increase in intracellular tyrosinase activity at 50 uM incubated for 48 hrs by L-DOPA oxidation method; assay type: functional, cell-based
B16 [9] = assay: Induction of melanogenesis in mouse B16 cells assessed as upregulation of TRP-2 protein expression at 50 uM incubated for 48 hrs by Western blot analysis; assay type: functional, cell-based
HaCaT [10] = assay: Inhibition of JAK/STAT signaling pathway in human HaCaT cells assessed as downregulation of IFN-gamma induced p-STAT protein expression at 10 to 50 uM incubated for 48 hrs by Western blot analysis; assay type: cell-based; conditions: dose 10-50 µM
HaCaT [11] = assay: Inhibition of JAK/STAT signaling pathway in human HaCaT cells assessed as downregulation of IFN-gamma induced CXCL10 protein level at 1 to 50 uM incubated for 24 hrs by ELISA; assay type: cell-based; conditions: dose 1-50 µM, DDE = dose-dependent effect
HaCaT [12] = assay: Inhibition of JAK/STAT signaling pathway in human HaCaT cells assessed as downregulation of IFN-gamma induced JAK2 protein expression at 50 uM incubated for 48 hrs by Western blot analysis; assay type: cell-based
B16 [13] = assay: Induction of melanogenesis in mouse B16 cells assessed as upregulation of TYR mRNA expression at 50 uM by RT-PCR analysis; assay type: functional, cell-based
B16 [14] = assay: Induction of melanogenesis in mouse B16 cells assessed as upregulation of TRP-1 protein expression at 50 uM incubated for 48 hrs by Western blot analysis; assay type: functional, cell-based
B16 [15] = assay: Induction of melanogenesis in mouse B16 cells assessed as upregulation of TRP-2 mRNA expression at 50 uM by RT-PCR analysis; assay type: functional, cell-based
HaCaT [16] = assay: Inhibition of JAK/STAT signaling pathway in human HaCaT cells assessed as downregulation of IFN-gamma induced JAK1 protein expression at 1 to 50 uM incubated for 48 hrs by Western blot analysis; assay type: cell-based; conditions: dose 1-50 µM

C=C1CC[C@@H](O)[C@]2(C)CC[C@@H]([C@@H](C)C(=O)OC)[C@H](O)[C@]12O
Activity (B16 [1]): Active | Activity (B16 [2]): Active | Activity (B16 [3]): Active | inhibition (HaCaT [4]): Dde | Activity (B16 [5]): 153% | Activity (B16 [6]): Dde | Activity (B16 [7]): Active | Activity (B16 [8]): Active | Activity (B16 [9]): Active | inhibition (HaCaT [10]): Active | inhibition (HaCaT [11]): Dde | inhibition (HaCaT [12]): Active | Activity (B16 [13]): Active | Activity (B16 [14]): Active | Activity (B16 [15]): Active | inhibition (HaCaT [16]): Active

C=C1CC[C@H](O)[C@]2(C)CC[C@H]3[C@@H](C)C(=O)O[C@@H]3[C@@]12O
Activity (B16 [5]): Active

C=C1CC[C@@H](O)[C@]2(C)C[C@H](OC(C)=O)[C@H]3[C@H](C)C(=O)O[C@@H]3[C@@]12O
Activity (B16 [5]): Active

C=C1CC[C@@H](O)[C@]2(C)CC[C@@H]([C@@H](C)C(=O)OC)[C@H](O)[C@@]12O
Activity (B16 [5]): Active

COc1c2occc2cc2ccc(=O)oc12 [METHOXSALEN]
Activity (B16 [5]): 138%
